Source: patent US4461912A, “Phenylacetic acid derivatives, their preparation and compositions containing them” (Sankyo Company Limited, priority 1981, dated 1984)
Read-outs that look alike come from different tables or passages of the source.

How the values were obtained:
pressure-induced pain = experiment: Pain test for analgesic activity (modified Randall-Selitto, Brewers' yeast inflamed paw pressure); format: in vivo, Male Wistar-Imamichi rats; settings: read-out: Analgesic activity ED50
Protocol: Pain test for analgesic activity
This test was conducted according to a modification of the method reported by L. O. Randall and J. J. Selitto in Arch. Int.
Male Wistar-Imamichi rats of 4 weeks of age and weighing 60-90 g were injected with 0.1 ml of a 20% by weight suspension of Brewers' yeast in the right hind paw. […] Each of these was given orally a test compound as an aqueous tragacanth suspension. 1 and 2 hours after administration of the test compound, the pain threshold was determined by observing pain responses (such as struggling or squeaking) when the inflamed or normal paw was subjected to pressure by a machine (Ugo-Basile).

carrageenin oedema = experiment: Carrageenin oedema test for anti-inflammatory activity; format: in vivo, Male Wistar rats; settings: rat, per os, aqueous tragacanth suspension, 30 minutes before carrageenin; paw volume 3 hours after carrageenin injection; dose to inhibit the response by 50%; unit assumed
Protocol: Carrageenin oedema test for anti-inflammatory activity
Male Wistar rats weighing 120-150 g were fasted overnight and then received a test compound per os as an aqueous tragacanth suspension. 30 minutes later, inflammation was induced by the subcutaneous injection of 0.05 ml of a 1% carrageenin suspension into the plantar tissue of a hind paw of each rat [Winter et al., Proc. Soc. […] The anti-oedema activity was measured volumetrically, by assessing the response, as calculated from the following equation: […]
where Vo and V represent, respectively, the paw volume immediately before and 3 hours after the carrageenin injection.

[1] = rat, oral, aqueous tragacanth suspension, pain threshold 1 and 2 hours after administration, effective = at least twice mean pain threshold of controls, Litchfield and Wilcoxon

CC(C(=O)O)c1ccc(C=C2CCCCC2=O)cc1 (stereo not drawn) [C, 2-[4-(2-oxocyclohexylidenemethyl)phenyl]propionic acid]
ED50 (pressure-induced pain; [1]): 0.94 mg/kg
Anti-inflammatory activity ID50 (carrageenin oedema): 1.2 mg/kg

CC(C(=O)O)c1ccc(C=C2CCCCC2O)cc1 (stereo not drawn) [A, 2-[4-(2-hydroxycyclohexylidenemethyl)phenyl]propionic acid]
ED50 (pressure-induced pain; [1]): 0.35 mg/kg
Anti-inflammatory activity ID50 (carrageenin oedema): 0.98 mg/kg

COc1ccc2c(c1)c(CC(=O)O)c(C)n2C(=O)c1ccc(Cl)cc1 [B, Indomethacin]
ED50 (pressure-induced pain; Rattus norvegicus, po): 1.6 mg/kg
Anti-inflammatory activity ID50 (carrageenin oedema): 2.2 mg/kg
